Test results taken from ChEMBL document CHEMBL4052738, “Design and synthesis of 4-morpholino-6-(1,2,3,6-tetrahydropyridin-4-yl)-N-(3,4,5-trimethoxyphenyl)-1,3,5-triazin-2-amine analogues as tubulin polymerization inhibitors” (Bioorg Med Chem Lett, 2017).
Activity calls are given as the source filed them. No cut-off for these calls is given here.

Legend:
A549 = test: Antiproliferative activity against human A549 cells after 48 hrs by sulforhodamine B assay; format: functional, cell-based; conditions: A549, 48 h
HeLa [1] = test: Antiproliferative activity against human HeLa cells after 48 hrs by sulforhodamine B assay; format: functional, cell-based
MCF7 = test: Antiproliferative activity against human MCF7 cells after 48 hrs by sulforhodamine B assay; format: functional, cell-based; conditions: MCF7, 48 h
HepG2 = test: Antiproliferative activity against human HepG2 cells after 48 hrs by sulforhodamine B assay; format: functional, cell-based; conditions: HepG2, 48 h
HeLa [2] = test: Inhibition of microtubule polymerization in human HeLa cells assessed as spindle fibres in nucleus at 1 mM after 24 hrs by DAPI staining-based immunofluorescence assay; format: cell-based
HeLa [3] = test: Inhibition of tubulin polymerization in human HeLa cells assessed as increase in soluble tubulin fraction at 1 mM after 24 hrs by immunoblot analysis; format: cell-based
HeLa [4] = test: Induction of apoptosis in human HeLa cells assessed as increase in cyclin-B1 levels at 1 mM after 24 hrs by immunoblot analysis; format: functional, cell-based
HeLa [5] = test: Inhibition of microtubule polymerization in human HeLa cells assessed as cell rounding at 1 mM after 24 hrs by DAPI staining-based immunofluorescence assay
[6] = Inhibition of porcine tubulin polymerization after 1 hr in presence of GTP; parameters: species or system Sus scrofa
HeLa [7] = test: Induction of apoptosis in human HeLa cells assessed as increase in cyclin-B1 levels at 10 mM after 24 hrs by immunoblot analysis; format: functional, cell-based
HeLa [8] = test: Inhibition of microtubule polymerization in human HeLa cells assessed as spindle fibres in nucleus at 10 mM after 24 hrs by DAPI staining-based immunofluorescence assay; format: cell-based
HeLa [9] = test: Inhibition of tubulin polymerization in human HeLa cells assessed as increase in soluble tubulin fraction at 10 mM after 24 hrs by immunoblot analysis; format: cell-based
HeLa [10] = test: Inhibition of microtubule polymerization in human HeLa cells assessed as cell rounding at 10 mM after 24 hrs by DAPI staining-based immunofluorescence assay

IC50 (A549) | IC50 (HeLa [1]) | IC50 (MCF7) | IC50 (HepG2) | SMILES | other results
34.9 µM | 47.8 µM | 50.3 µM | 30.6 µM | COc1ccc(S(=O)(=O)N2CC=C(c3nc(Nc4cc(OC)c(OC)c(OC)c4)nc(N4CCOCC4)n3)CC2)cc1 | 
33.5 µM | 50.4 µM | 40.4 µM | 48.4 µM | COc1cc(Nc2nc(C3=CCN(S(=O)(=O)c4ccc(C(C)(C)C)cc4)CC3)nc(N3CCOCC3)n2)cc(OC)c1OC | 
40.3 µM | 45.7 µM | 42.1 µM | 25 µM | COc1cc(Nc2nc(C3=CCN(S(=O)(=O)c4ccc(C)cc4)CC3)nc(N3CCOCC3)n2)cc(OC)c1OC | 
49 µM | 45.7 µM | 40.2 µM | 50.6 µM | COc1cc(Nc2nc(C3=CCN(C(C)=O)CC3)nc(N3CCOCC3)n2)cc(OC)c1OC | 
34 µM | 40.4 µM | 39.8 µM | 35.7 µM | COc1cc(Nc2nc(C3=CCN(C(=O)c4ccc(Br)cc4)CC3)nc(N3CCOCC3)n2)cc(OC)c1OC | 
45.6 µM | 50.6 µM | 29.6 µM | 30 µM | COc1cc(Nc2nc(C3=CCN(S(=O)(=O)c4ccc(F)cc4)CC3)nc(N3CCOCC3)n2)cc(OC)c1OC | 
45.7 µM | 40.1 µM | 25.9 µM | 29.1 µM | COc1cc(Nc2nc(C3=CCN(C(=O)Nc4ccc(F)cc4)CC3)nc(N3CCOCC3)n2)cc(OC)c1OC | 
43.6 µM | 30.6 µM | 32.5 µM | 40.4 µM | COc1cc(Nc2nc(C3=CCN(S(=O)(=O)c4ccc(Br)cc4)CC3)nc(N3CCOCC3)n2)cc(OC)c1OC | 
40.8 µM | 51 µM | 30.6 µM | 49.3 µM | COc1cc(Nc2nc(C3=CCN(S(=O)(=O)c4ccc(Cl)cc4)CC3)nc(N3CCOCC3)n2)cc(OC)c1OC | 
33.5 µM | 32 µM | 50.5 µM | 51 µM | COc1cc(Nc2nc(C3=CCN(S(=O)(=O)c4ccccc4[N+](=O)[O-])CC3)nc(N3CCOCC3)n2)cc(OC)c1OC | 
43.5 µM | 34.8 µM | 38.3 µM | 40.3 µM | COc1cc(Nc2nc(C3=CCN(C(=O)c4ccc(Cl)cc4)CC3)nc(N3CCOCC3)n2)cc(OC)c1OC | 
45.9 µM | 40.5 µM | 26.4 µM | 43.6 µM | COc1ccc(NC(=O)N2CC=C(c3nc(Nc4cc(OC)c(OC)c(OC)c4)nc(N4CCOCC4)n3)CC2)cc1 | 
10.5 µM | 12.3 µM | 11.7 µM | 9.6 µM | COc1cc(Nc2nc(C3=CCN(C(=O)c4ccc([N+](=O)[O-])o4)CC3)nc(N3CCOCC3)n2)cc(OC)c1OC | Activity (HeLa [7]): Active; inhibition (HeLa [8]): Active; inhibition (HeLa [9]): Active; inhibition (HeLa [10]): Active; IC50 [6]: 5.2 µM
29.9 µM | 32.1 µM | 40.5 µM | 27.2 µM | COc1cc(Nc2nc(C3=CCN(S(=O)(=O)c4ccc(C(F)(F)F)cc4)CC3)nc(N3CCOCC3)n2)cc(OC)c1OC | 
39 µM | 32 µM | 28.9 µM | 28.5 µM | COc1cc(Nc2nc(C3=CCN(S(C)(=O)=O)CC3)nc(N3CCOCC3)n2)cc(OC)c1OC | 
51 µM | 45 µM | 32 µM | 37.1 µM | COc1cc(Nc2nc(C3=CCN(C(=O)c4ccco4)CC3)nc(N3CCOCC3)n2)cc(OC)c1OC | 
29 µM | 39.6 µM | 30.6 µM | 28 µM | COc1cc(Nc2nc(C3=CCN(S(=O)(=O)c4ccc(Br)s4)CC3)nc(N3CCOCC3)n2)cc(OC)c1OC | 
48.9 µM | 50.6 µM | 32.1 µM | 39.5 µM | COc1cc(Nc2nc(C3=CCN(C(=O)c4ccncc4)CC3)nc(N3CCOCC3)n2)cc(OC)c1OC | 
32 µM | 45 µM | 32.1 µM | 36.5 µM | COc1cc(Nc2nc(C3=CCN(S(=O)(=O)c4ccc(C(C)=O)cc4)CC3)nc(N3CCOCC3)n2)cc(OC)c1OC | 
34.6 µM | 32 µM | 40.3 µM | 43.2 µM | COc1cc(Nc2nc(C3=CCN(S(=O)(=O)c4ccc([N+](=O)[O-])cc4)CC3)nc(N3CCOCC3)n2)cc(OC)c1OC | 
45.9 µM | 43.9 µM | 28 µM | 38.9 µM | COc1cc(Nc2nc(C3=CCN(C(=O)c4ccc(Br)cc4O)CC3)nc(N3CCOCC3)n2)cc(OC)c1OC | 
35.9 µM | 30.7 µM | 29 µM | 34.9 µM | COc1cc(Nc2nc(C3=CCN(C(=O)Nc4ccc(Cl)cc4)CC3)nc(N3CCOCC3)n2)cc(OC)c1OC | 
33.3 µM | 43 µM | 32.1 µM | 30.6 µM | COc1ccc(C(=O)N2CC=C(c3nc(Nc4cc(OC)c(OC)c(OC)c4)nc(N4CCOCC4)n3)CC2)cc1 | 

More lines, now with the values behind:

SMILES | IC50 (A549) | IC50 (HeLa [1]) | IC50 (MCF7) | IC50 (HepG2) | other results
CCN1CCN(C(=O)N2CC=C(c3nc(Nc4cc(OC)c(OC)c(OC)c4)nc(N4CCOCC4)n3)CC2)CC1 | 43.2 µM | 39.5 µM | 30 µM | 45.9 µM | 
COc1cc(Nc2nc(C3=CCN(C(=O)CS)CC3)nc(N3CCOCC3)n2)cc(OC)c1OC | 43.2 µM | 32.9 µM | 30.5 µM | 32.9 µM | 
COC(=O)Nc1nc2cc(C(=O)c3cccs3)ccc2[nH]1 [NOCODAZOLE] |  | 1.6 µM | 1.5 µM | 1.1 µM | inhibition (HeLa [2]): Active; inhibition (HeLa [3]): Active; Activity (HeLa [4]): Active; inhibition (HeLa [5]): Active; IC50 [6]: 0.8 µM
COc1cc(Nc2nc(C3=CCN(C(=O)Nc4ccncc4)CC3)nc(N3CCOCC3)n2)cc(OC)c1OC | 32 µM | 34 µM | 38.5 µM | 50 µM | 
COc1cc(Nc2nc(C3=CCN(C(=O)N4CCCCC4)CC3)nc(N3CCOCC3)n2)cc(OC)c1OC | 30.8 µM | 34 µM | 40.5 µM | 41.7 µM | 
COc1cc(Nc2nc(C3=CCN(C(=O)Cc4c[nH]c5ccccc45)CC3)nc(N3CCOCC3)n2)cc(OC)c1OC | 43.9 µM | 33.2 µM | 29.8 µM | 32 µM | 
COc1cc(Nc2nc(C3=CCN(C(=O)c4cnccn4)CC3)nc(N3CCOCC3)n2)cc(OC)c1OC | 41.9 µM | 48.3 µM | 39.4 µM | 40 µM | 
COc1cc(Nc2nc(C3=CCN(C(=O)N4CCN(C)CC4)CC3)nc(N3CCOCC3)n2)cc(OC)c1OC | 34.6 µM | 40.2 µM | 40.8 µM | 34.9 µM | 
COc1cc(Nc2nc(C3=CCN(C(=O)N4CCOCC4)CC3)nc(N3CCOCC3)n2)cc(OC)c1OC | 32 µM | 45.2 µM | 38.2 µM | 29 µM | 
COc1cc(Nc2nc(C3=CCN(C(=O)CC#N)CC3)nc(N3CCOCC3)n2)cc(OC)c1OC | 42 µM | 34.2 µM | 40.4 µM | 29.8 µM | 
COc1cc(Nc2nc(C3=CCN(C(=O)N4CCCC4)CC3)nc(N3CCOCC3)n2)cc(OC)c1OC | 43.3 µM | 29.4 µM | 34 µM | 38.8 µM | 
COc1cc(Nc2nc(C3=CCN(C(=O)N4CCN(c5ccc(C)cc5)CC4)CC3)nc(N3CCOCC3)n2)cc(OC)c1OC | 29.6 µM | 39.6 µM | 49.1 µM | 40 µM | 
COc1cc(Nc2nc(C3=CCN(C(=O)c4cccnc4Cl)CC3)nc(N3CCOCC3)n2)cc(OC)c1OC | 42.9 µM | 41 µM | 30.2 µM | 45 µM | 
COc1cc(Nc2nc(C3=CCN(C(=O)C(F)(F)F)CC3)nc(N3CCOCC3)n2)cc(OC)c1OC | 28.6 µM | 43.1 µM | 48.4 µM | 50.6 µM | 
COc1cc(Nc2nc(C3=CCN(C(=O)Nc4ccc(F)c(F)c4)CC3)nc(N3CCOCC3)n2)cc(OC)c1OC | 51 µM | 30.4 µM | 30.6 µM | 34.5 µM | 
COc1ccc(/C=C\c2cc(OC)c(OC)c(OC)c2)cc1O [COMBRETASTATIN A4] | 5.3 µM | 5.8 µM | 4.2 µM | 4.3 µM | 
